Patent publication US20220313658A1, “YAP Inhibition for Wound Healing” (The Board of Trustees of the Leland Stanford Junior …, priority 2019, published 2022)

Columns and labels:
dorsal excisional wounds [1] = test: Dorsal excisional wounding, wound base injected with Verteporfin: gross, histology, immunofluorescence; format: in vivo, mouse
Description: P60 En-1^Cre;R26^mTmG, En-1^Cre;Ai6, and En-1^Cre-ERT;Ai6 mice were used for cutaneous wound healing experiments in accordance with well-established protocols. Briefly, mice were anesthetized (2% isofiuorane), their dorsal hair was removed with depilatory cream, and the dorsal skin was prepped with alcohol wipes. Next, two 6 mm full-thickness circular wounds were placed through the panniculus carnosus on the dorsum of each animal at the same level, roughly 6 mm below the ears and 4 mm lateral to the midline. The wounds were then stented open by 12 mm diameter silicone rings secured around the wound perimeter with glue and 8 simple interrupted Ethilon 6-0 sutures (Ethicon). For mice receiving mechanotransduction inhibitor, 30 μL of Verteporfin (1 mg/mL) was injected locally into the wound base; PBS was injected into wounds for vehicle controls. Post-operative analgesia was accomplished with buprenorphine 0.05 mg/kg every four hours for three doses, and then as indicated. Dressings were changed every other day under anesthesia. All wounds were fully re-epithelialized by post-operative day (POD) 14, at which time the wound and surrounding skin (used as unwounded control) were harvested and processed for histology. Induction of En-1^Cre-ERT;Ai6 mice was achieved by 5 consecutive days of intraperitoneal tamoxifen injections (90% corn oil/ethanol v/v; 200 mg/kg body weight) prior to wounding. In all experiments, a minimum of 3 mice with 2 wounds each was used for each treatment group.
Tissues were fixed in 2% paraformaldehyde for 16 h at 4° C. Samples were prepared for embedding by soaking in 30% sucrose in PBS for 1 week at 4° C. Samples were then removed from the sucrose solution, and tissue blocks were prepared by embedding in Tissue Tek U.C.T. (Sakura Finetek) under dry ice to achieve rapid freezing. Frozen blocks were mounted on a Thermo Scientific CryoStar NX70 cryostat, and 10 μm-thick sections were transferred to SuperfrostfPlus adhesive slides (Fisher). For hematoxylin and eosin staining, standard protocols were used with no modifications. For immunofluorescent staining, slides were blocked for 1 hr with Power Block (Biogenex) prior to addition of the following primary antibodies: Abeam ab34710 (anti-collagen type I), Abeam ab28340 (anti-CD26), Invitrogen MA5-15915 (anti-Dlk1), Abeam ab51317 (anti-Scat), Abeam ab5694 (anti-α-SMA), Santa Cruz Biotechnology sc-101199 (anti-YAP), Abeam ab7800 (anti-CK14), and Abeam ab52625 (anti-CK19). Slides were then incubated for 1 h with Alexa Fluor 568 or Alexa Fluor 647-conjugated anti-rabbit, anti-rat, or anti-mouse antibodies (Invitrogen). Finally, slides were mounted in Fluoromount-G mounting solution with DAPI (Thermo Fisher). Brightfield images were acquired with a Leica DMI4000B microscope, while fluorescent images were acquired with a Leica DM6000 SP5 upright confocal microscope.
Given that En-1 activation was associated with adoption of a pro-fibrotic phenotype, and that YAP inhibition prevented En-1 activation in vitro, whether YAP inhibition could also block En-1 activation in vivo to reduce scarring in a mouse wounding model was assessed. Adult En-1^Cre;R26^mTmG mice were wounded, and the POD 0 wounds were treated by injecting the wound base with either PBS (control) or Verteporfin (1 mg/mL). […] Wounds were harvested for gross and histological examination at POD 14, 30, or 90. As expected, control wounds healed in a typical scarring fashion (FIG. 4, A middle row). Even after 90 days, the wound site remained bare, forming a distinct region of pale scar tissue in which no hair regrowth occurred (FIG. 4, A middle row, right image). […] This was a striking result, as a hallmark of adult mammalian (scarring) wound healing is a complete lack of regeneration of secondary appendages (e.g., hair follicles, sweat glands), as exemplified by the bare area that remained following control wound healing. […]

dorsal excisional wounds [2] = test: Tensile strength testing (Instron) of healed wounds; format: in vivo, mouse
Protocol: Tensile strength tests for unwounded skin (N=7) and PBS (N=5) or Verteporfin-treated (N=4) wounds in P60 C57BL/6 mice were conducted at POD 30 using an Instron 5565 equipped with a 100 N load cell. Dorsal skin was harvested and cut into 4 mm-by-15 mm strips. Tissue strips were then secured using custom grips with the scar positioned equidistant to each grip edge and preloaded to a force of 0.02 N to remove slack before the length of the tissue was measured using digital calipers; the width and thickness of the strips were also re-measured to confirm accurate dimensions. Finally, the skin was subjected to an extension test to failure, defined by a sharp decrease in stress with increasing strain, at a rate of 1%/s. The wound breaking force, or yield force, was determined at the maximal force before the tissue entered plastic deformation and eventual failure. True strain was calculated as the change in length divided by the original gauge length, and true stress was calculated as the force divided by the original cross-sectional area. The Young's Modulus was calculated by taking a least-squares regression of the slope during the linear, elastic portion of the stress-strain curve (R^2>0.99). […] In order to characterize the physical properties of Verteporfin-treated wounds, tensile testing was performed on unwounded skin and PBS- or Verteporfin-treated wounds after 30 days of healing.

[3] = 30 days, relative to control wounds
[4] = four treatments (POD 0, 4, 8 and 12)

verteporfin
Fibronectin staining (dorsal excisional wounds [1]; 14 days, vs control wounds): comparatively stronger staining for fibronectin | col-I staining (dorsal excisional wounds [1]; 14 days, vs control wounds): substantially reduced col-I staining | Distribution of Dlk1+ cells (dorsal excisional wounds [1]; 30 days): present throughout the dermis | CD26 staining (dorsal excisional wounds [1]; [3]): decreased staining for CD26 | Number of EPFs in wounds (dorsal excisional wounds [1]; [3]): significantly fewer EPFs | Chains of YAP+ cells (dorsal excisional wounds [1]; 30 days, vs control wounds): markedly shorter | IF staining of appendages for cytokeratins 14 and 19 (hair follicle and sweat gland markers) (dorsal excisional wounds [1]; POD 90): positive IF staining | Oil Red O lipid staining (sebaceous glands) (dorsal excisional wounds [1]; POD 90): positive lipid staining | Regrowth of dermal appendages (dorsal excisional wounds [1]; POD 90 (FIG. 4, C)): regrowth of hair follicles and other dermal appendages | Fibroblast lineage content of wounds (ENFs vs EPFs) (dorsal excisional wounds [1]; after 14 days): almost exclusively ENFs | H&E histology: dermal appendage structures (dorsal excisional wounds [1]; by 1 and 3 months): numerous structures morphologically resembling hair follicles or sweat glands | H&E histology: fibrosis and cellularity (dorsal excisional wounds [1]; by 2 weeks): reduced fibrosis and increased cellularity | Hair regrowth (dorsal excisional wounds [1]; [4]): grossly reduced | Wound closure (dorsal excisional wounds [1]; [4]): delayed | Hair growth within healed wound (dorsal excisional wounds [1]; single dose POD 0, by 30 days): substantial hair growth within the healed wound | Gross appearance of healed wound (dorsal excisional wounds [1]; single dose POD 0, by 90 days): grossly indistinguishable from unwounded skin | Wound closure rate (dorsal excisional wounds [1]; single injection 1 mg/mL into wound base at POD 0, vs PBS): did not significantly affect wound closure rate | Number of EPFs in wounds (dorsal excisional wounds [1]; three months of healing): dramatically reduced numbers of EPFs | YAP+ cells (dorsal excisional wounds [1]; three months of healing): rare YAP^+ cells | α-SMA+ cells (dorsal excisional wounds [1]; three months of healing): virtually no α-SMA^+ cells | Wound closure rates, gross appearance and ECM features (dorsal excisional wounds [1]; two doses (POD 0 and 4)): comparable to those of wounds treated with single Verteporfin dose | Force-displacement and stress-strain curves (dorsal excisional wounds [2]; after 1 month of healing): more closely resembled unwounded skin than scar | Tensile strength (wound breaking force and Young's modulus) (dorsal excisional wounds [2]; after 30 days of healing, vs unwounded skin): did not significantly differ from that of unwounded skin
